Among the test systems are A549; CAKI-1; CCRF-CEM; EKVX; HCT-116; HL-60; HOP-62; IGROV-1; K562; LOX IMVI; M14; NCI-H460; OVCAR-3; RPMI-8226; SK-MEL-28; SNB-19; SNB-75; UACC-62; UO-31; HOP-92.
Common to all, as to assay: NCI tumour cell line growth inhibition, 48 h

Each structure is given as a SMILES string.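 Cells were grown in 96-well plates and exposed to each compound for 48 hours at five concentrations; endpoints were interpolated linearly between bracketing concentrations, or set to the highest concentration if not reached. GI50 marks 50% less growth.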 The source made the active and inactive calls. No stated cut-off is given here; in the data, active = GI50 up to about 1.1 µM and inactive = higher. Bounds are passed on as bounds.

Take `CNC(=O)OC(C)CN1c2ccccc2Sc2ccc(Cl)cc21` (stereo unspecified): the GI50 in the test with A549, in the test on CAKI-1, in the test with CCRF-CEM, with EKVX, in the test with HCT-116 and with HL-60 was > 10 µM (inactive) in each case. Also, the GI50 with HOP-62, in the test on IGROV-1, in the test with K562, in the test with LOX IMVI, in the test on M14 and in the test on NCI-H460 was > 10 µM (inactive) each time. The GI50 in the test with OVCAR-3, with RPMI-8226, in the test with SK-MEL-28, in the test with SNB-19, in the test with SNB-75 and in the test with UACC-62 was > 10 µM (inactive) each time. In addition, in the test on UO-31, the GI50 is > 10 µM (inactive).
With `CC1(C)OCC(CO)(CO)CO1`, the GI50 in the test on A549, in the test on CCRF-CEM, with HCT-116, with HL-60, in the test with HOP-92 and in the test with K562 was > 100 µM (inactive) each time. Besides, the GI50 with LOX IMVI, with M14, in the test on NCI-H460, in the test on OVCAR-3, in the test with SK-MEL-28 and with SNB-19 was > 100 µM (inactive) in each case. Further, the GI50 in the test with SNB-75 and with UO-31 was > 100 µM (inactive) each time.
In the case of `CNC(=O)OCC1=C(COC(=O)NC)CN(c2ccc(OC)cc2)C1`, the GI50 in the test with A549, in the test with CCRF-CEM, in the test on EKVX, in the test with HCT-116, with HL-60 and in the test with HOP-62 was > 100 µM (inactive) in each case. The GI50 in the test with HOP-92, with IGROV-1, in the test with K562, with LOX IMVI, in the test on M14 and in the test with NCI-H460 was > 100 µM (inactive) throughout. For the same molecule, the GI50 in the test with OVCAR-3, in the test on RPMI-8226, with SK-MEL-28, with SNB-19, in the test with SNB-75 and in the test on UACC-62 was > 100 µM (inactive) throughout. In addition, in the test on UO-31, the GI50 was 80.9 µM (inactive).
As for `Oc1nc2ccccc2c2oc3ccccc3c12`, the GI50 in the test on A549 is > 100 µM (inactive); in the test with CAKI-1, > 100 µM (inactive); with CCRF-CEM, > 100 µM (inactive); in the test with EKVX it was 2.9 µM (inactive); in the test on HOP-62 it was 88.9 µM (inactive); in the test on HOP-92, 23.2 µM (inactive). Further, the GI50 in the test on IGROV-1, in the test on K562, in the test with M14, with NCI-H460, in the test on OVCAR-3 and with SK-MEL-28 was > 100 µM (inactive) in each case. Also, the GI50 in the test on SNB-19 is > 100 µM (inactive); with SNB-75 it was 6.81 µM (inactive); in the test with UACC-62, > 100 µM (inactive); with UO-31 it was > 100 µM (inactive).
As for `COc1cc(/N=N\c2cccc(S(=O)(=O)O)c2)ccc1/N=N\c1ccc(/C=C/c2ccc(-n3on3-c3ccc(/C=C/c4ccc(/N=N/c5ccc(/N=N\c6cccc(S(=O)(=O)O)c6)cc5OC)cc4S(=O)(=O)O)c(S(=O)(=O)O)c3)cc2S(=O)(=O)O)c(S(=O)(=O)O)c1`, the GI50 in the test with A549 is > 100 µM (inactive); in the test with CCRF-CEM it was > 100 µM (inactive); with EKVX, > 100 µM (inactive); in the test on HCT-116, > 100 µM (inactive); in the test on HL-60 it was > 80 µM (inactive); with HOP-62, > 100 µM (inactive). In addition, the GI50 is > 86.1 µM (inactive) in the test with HOP-92; > 100 µM (inactive) in the test with IGROV-1; > 100 µM (inactive) with K562; > 100 µM (inactive) in the test on LOX IMVI; > 100 µM (inactive) with NCI-H460; > 100 µM (inactive) with OVCAR-3. Besides, the GI50 with RPMI-8226 is > 100 µM (inactive); with SK-MEL-28, > 100 µM (inactive); with SNB-19, > 100 µM (inactive); in the test with SNB-75 it was 91.8 µM (inactive); in the test on UACC-62, > 100 µM (inactive); with UO-31, > 100 µM (inactive).
As to `C=CCCC(On1c(-c2ccc(Cl)cc2)csc1=S)c1ccccc1` (stereo unspecified), the GI50 in the test with A549 is 31.2 µM (inactive); with CAKI-1 it was > 100 µM (inactive); with CCRF-CEM it was 12.4 µM (inactive); in the test on EKVX, 19.9 µM (inactive); in the test with HCT-116, 7.03 µM (inactive); in the test with HL-60, 7.18 µM (inactive). For the same molecule, the GI50 was 90.6 µM (inactive) in the test on HOP-62; 40.6 µM (inactive) with HOP-92; 20.2 µM (inactive) in the test on IGROV-1; 9.51 µM (inactive) with K562; 33.6 µM (inactive) in the test with LOX IMVI; 13.9 µM (inactive) in the test on M14. Further, the GI50 is 23 µM (inactive) in the test with OVCAR-3; 31.8 µM (inactive) in the test with RPMI-8226; 85.3 µM (inactive) in the test with SK-MEL-28; 35.6 µM (inactive) in the test with SNB-19; 36.7 µM (inactive) in the test on UACC-62; 42 µM (inactive) in the test on UO-31.
For the molecule `COS(=O)c1cc(Cl)cc(Cl)c1O` (stereo unspecified), the GI50 in the test with CCRF-CEM, in the test with EKVX, in the test on HCT-116, with HL-60, in the test with HOP-62 and in the test on K562 was > 100 µM (inactive) throughout. Also, the GI50 in the test on LOX IMVI, in the test with M14, with NCI-H460, in the test with OVCAR-3, with SK-MEL-28 and in the test with SNB-19 was > 100 µM (inactive) throughout. Moreover, the GI50 with SNB-75 is 87.7 µM (inactive); in the test on UACC-62 it was > 100 µM (inactive); with UO-31, > 100 µM (inactive).
On to `COc1ccc(/C(Cl)=C(\CN(C)C)c2ccc(OC)c(OC)c2)cc1OC`, for which the GI50 in the test with CAKI-1 is > 100 µM (inactive); in the test on CCRF-CEM, > 100 µM (inactive); in the test on EKVX, > 100 µM (inactive); in the test with HL-60, 21.2 µM (inactive); with IGROV-1, > 100 µM (inactive); in the test on K562, > 100 µM (inactive). Also, the GI50 in the test with LOX IMVI, in the test with NCI-H460, in the test with OVCAR-3, in the test on RPMI-8226, in the test with SK-MEL-28 and in the test on SNB-19 was > 100 µM (inactive) each time. For the same molecule, the GI50 with UACC-62 and in the test with UO-31 was > 100 µM (inactive) throughout.
With `COC(=O)C(C)NP(=O)(N1CC1)N1CC1` (stereo unspecified), the GI50 with A549 was > 100 µM (inactive); in the test on CAKI-1 it was > 100 µM (inactive); in the test with CCRF-CEM it was 47.6 µM (inactive); with EKVX, > 100 µM (inactive); in the test on HL-60, 32.7 µM (inactive); in the test on IGROV-1 it was > 100 µM (inactive). Moreover, the GI50 is > 100 µM (inactive) in the test on K562; 80 µM (inactive) in the test with LOX IMVI; 83 µM (inactive) with M14; > 100 µM (inactive) with RPMI-8226; > 100 µM (inactive) with SK-MEL-28; > 100 µM (inactive) with SNB-19. For the same molecule, the GI50 is > 100 µM (inactive) in the test with SNB-75, 61.8 µM (inactive) in the test with UACC-62 and > 100 µM (inactive) in the test with UO-31.
In the case of `CCOC(=O)Cc1cnc(NC(NC(=O)CC)(C(F)(F)F)C(F)(F)F)s1`, the GI50 in the test on CCRF-CEM, with EKVX, in the test on HCT-116, in the test with HL-60, in the test with HOP-62 and in the test with K562 was > 100 µM (inactive) throughout. Further, the GI50 in the test with LOX IMVI, in the test on M14, with NCI-H460, in the test with OVCAR-3, in the test with RPMI-8226 and with SK-MEL-28 was > 100 µM (inactive) in each case. In addition, the GI50 in the test with SNB-19, in the test on SNB-75, in the test with UACC-62 and in the test with UO-31 was > 100 µM (inactive) each time.
Turning to `COc1cc(C2c3cc4c(cc3[C@@H](Nc3ccc(Oc5ccccc5)cc3)C3COC(=O)[C@H]23)OCO4)cc(OC)c1O` (stereo partly specified), the GI50 with A549 is 0.916 µM (active); in the test with CAKI-1 it was 1.35 µM (inactive); in the test on CCRF-CEM it was 0.431 µM (active); with EKVX, > 39.7 µM (inactive); with HCT-116, 0.979 µM (active); with HL-60, 0.362 µM (active). The GI50 with HOP-62 is 0.851 µM (active); in the test with IGROV-1, 4.38 µM (inactive); in the test on K562, 1.14 µM (inactive); in the test on LOX IMVI, 2.43 µM (inactive); in the test with NCI-H460, 0.0867 µM (active); with OVCAR-3 it was > 62.2 µM (inactive). Further, the GI50 is 1.08 µM (active) in the test on RPMI-8226; > 42.3 µM (inactive) in the test with SK-MEL-28; 3.27 µM (inactive) with SNB-19; 0.869 µM (active) in the test with UACC-62; 2.59 µM (inactive) in the test with UO-31.

For the origin of these results see ChEMBL document CHEMBL1201862, “PubChem BioAssay data set” (2004).
